Results published in patent US6737383B1, “Herbicidal oxadiazolidines” (priority 1999, dated 2004).

Tests used:
giant foxtail = assay: Test B pre/postemergence giant foxtail; format: in vivo, Setaria faberii
How it was run: (§1)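 Response is a visual 0-to-10 score relative to untreated plants, where 0 means no effect and 10 means complete control, taken twelve to sixteen days after application. Treatments went onto soil at planting and onto foliage of 1- to 4-leaf plants, using a surfactant-containing non-phytotoxic solvent.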

soybean = assay: Test B pre/postemergence soybean; format: in vivo, Glycine max
How it was run: as §1

rice = assay: Test B flood test rice; format: in vivo, Oryza sativa
How it was run: (§2)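 Flood test on plants grown to the 2-leaf stage; treated plants kept in greenhouse twelve to sixteen days, then visually rated against controls on a 0 (no effect) to 10 (complete control) scale.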

bamyardgrass = assay: Test B flood test barnyardgrass; format: in vivo, Echinochloa crus-galli
How it was run: as §2

[1] = Postemergence, Rate 62 g/ha, scale 0 to 10, 0 is no effect, 10 is complete control
[2] = Postemergence, Rate 250 g/ha, scale 0 to 10, 0 no effect, 10 complete control
[3] = Preemergence, Rate 62 g/ha, scale 0 to 10, 0 is no effect, 10 is complete control
[4] = Preemergence, Rate 125 g/ha, scale 0 to 10 (0 no effect, 10 complete control)
[5] = Preemergence, Rate 250 g/ha, scale of 0 to 10 where 0 is no effect and 10 is complete control
[6] = Preemergence, Rate 500 g/ha, scale 0 (no effect) to 10 (complete control)
[7] = Rate 125 g/ha, Postemergence, scale 0 to 10, 0 no effect, 10 complete control
[8] = Rate 500 g/ha, Postemergence, 0 to 10 scale (0 no effect, 10 complete control)
[9] = Rate 125 g/ha, Postemergence section (flood test species), scale 0 to 10, 0 no effect, 10 complete control
[10] = Rate 500 g/ha, Postemergence section of Table B, 0 to 10 scale (0 no effect, 10 complete control)
[11] = flood test, listed under Postemergence, Rate 250 g/ha, scale 0 to 10, 0 no effect, 10 complete control
[12] = Preemergence, Rate 62 g/ha, scale 0 to 10 (0 no effect, 10 complete control)
[13] = Rate 500 g/ha, Postemergence, scale 0 to 10, 0 no effect, 10 complete control
[14] = Rate 500 g/ha, listed under Postemergence (flood test species), scale 0 to 10, 0 no effect, 10 complete control
[15] = Rate 62 g/ha, headed Pre-emergence (flood test species), scale 0 to 10 (0 no effect, 10 complete control)
[16] = Rate 125 g/ha, Pre-emergence, flood test species, scale 0 to 10 where 0 is no effect and 10 is complete control
[17] = Rate 250 g/ha, headed Pre-emergence (flood test species), scale 0 to 10 (0 no effect, 10 complete control)
[18] = Rate 500 g/ha, headed Pre-emergence (flood test species), scale 0 to 10 (0 no effect, 10 complete control)
[19] = Postemergence, Rate 125 g/ha, scale of 0 to 10 where 0 is no effect and 10 is complete control
[20] = Preemergence, Rate 125 g/ha, 0 is no effect, 10 is complete control
[21] = Preemergence, Rate 250 g/ha, scale 0 to 10, 0 is no effect, 10 is complete control
[22] = Preemergence, Rate 500 g/ha, scale 0 to 10 (0 no effect, 10 complete control)
[23] = Rate 62 g/ha, Postemergence, scale of 0 to 10 where 0 is no effect and 10 is complete control
[24] = Rate 250 g/ha, Postemergence, scale 0 to 10, 0 is no effect, 10 is complete control
[25] = Rate 500 g/ha, Postemergence, scale 0 to 10

## CC(C)N(C(=O)n1oc(=O)n(-c2cc(Cl)ccc2Cl)c1=O)c1ccc(F)cc1 [Compound 16]
Giant foxtail; [1]
  Giant foxtail plant response rating: 0
Giant foxtail; [2]
  Giant foxtail plant response rating: 0
Giant foxtail; [3]
  Plant response rating, Giant foxtail: 0
Giant foxtail; [4]
  Plant response rating, Giant foxtail: 2
Giant foxtail; [5]
  Plant response rating, Giant foxtail: 3
Giant foxtail; [6]
  Giant foxtail plant response rating: 8
Giant foxtail; [7]
  Giant foxtail plant response rating: 0
Giant foxtail; [8]
  Giant foxtail plant response rating: 3
soybean; [1]
  Soybean plant response rating: 1
soybean; [2]
  Soybean plant response rating: 1
soybean; [3]
  Plant response rating, Soybean: 0
soybean; [4]
  Plant response rating, Soybean: 0
soybean; [5]
  Plant response rating, Soybean: 0
soybean; [6]
  Soybean plant response rating: 0
soybean; [7]
  Soybean plant response rating: 1
rice; [1]
  Rice plant response rating: 0
rice; [9]
  Rice plant response rating: 0
rice; [10]
  Rice plant response rating: 0
rice; [11]
  Rice plant response rating: 0
bamyardgrass; [1]
  Barnyardgrass plant response rating: 0
bamyardgrass; [9]
  Barnyardgrass plant response rating: 0
bamyardgrass; [10]
  Barnyardgrass plant response rating: 0
bamyardgrass; [11]
  Barnyardgrass plant response rating: 0

## CC(C)N(C(=O)n1oc(=O)n(-c2ccc(Cl)cc2C(F)(F)F)c1=O)c1ccc(F)cc1 [Compound 20]
Giant foxtail; [1]
  Giant foxtail plant response rating: 0
Giant foxtail; [2]
  Giant foxtail plant response rating: 1
Giant foxtail; [3]
  Plant response rating, Giant foxtail: 3
Giant foxtail; [4]
  Plant response rating, Giant foxtail: 5
Giant foxtail; [5]
  Plant response rating, Giant foxtail: 7
Giant foxtail; [6]
  Giant foxtail plant response rating: 9
Giant foxtail; [7]
  Giant foxtail plant response rating: 0
Giant foxtail; [8]
  Giant foxtail plant response rating: 1
soybean; [1]
  Soybean plant response rating: 3
soybean; [2]
  Soybean plant response rating: 3
soybean; [3]
  Plant response rating, Soybean: 0
soybean; [4]
  Plant response rating, Soybean: 0
soybean; [5]
  Plant response rating, Soybean: 0
soybean; [6]
  Soybean plant response rating: 0
soybean; [7]
  Soybean plant response rating: 3
rice; [1]
  Rice plant response rating: 0
rice; [9]
  Rice plant response rating: 0
rice; [10]
  Rice plant response rating: 2
rice; [11]
  Rice plant response rating: 0
bamyardgrass; [1]
  Barnyardgrass plant response rating: 0
bamyardgrass; [9]
  Barnyardgrass plant response rating: 0
bamyardgrass; [10]
  Barnyardgrass plant response rating: 0
bamyardgrass; [11]
  Barnyardgrass plant response rating: 0

## Cc1ccccc1-n1c(=O)on(C(=O)N(c2cc(OC(C)C)c(Cl)cc2Cl)C(C)C)c1=O [Compound 42]
Giant foxtail; [1]
  Giant foxtail plant response rating: 0
Giant foxtail; [2]
  Giant foxtail plant response rating: 0
Giant foxtail; [3]
  Plant response rating, Giant foxtail: 0
Giant foxtail; [4]
  Plant response rating, Giant foxtail: 0
Giant foxtail; [5]
  Plant response rating, Giant foxtail: 0
Giant foxtail; [6]
  Giant foxtail plant response rating: 0
Giant foxtail; [7]
  Giant foxtail plant response rating: 0
Giant foxtail; [8]
  Giant foxtail plant response rating: 0
soybean; [1]
  Soybean plant response rating: 0
soybean; [2]
  Soybean plant response rating: 0
soybean; [3]
  Plant response rating, Soybean: 0
soybean; [4]
  Plant response rating, Soybean: 0
soybean; [5]
  Plant response rating, Soybean: 0
soybean; [6]
  Soybean plant response rating: 0
soybean; [7]
  Soybean plant response rating: 0
rice; [1]
  Rice plant response rating: 0
rice; [9]
  Rice plant response rating: 0
rice; [10]
  Rice plant response rating: 0
rice; [11]
  Rice plant response rating: 0
bamyardgrass; [1]
  Barnyardgrass plant response rating: 0
bamyardgrass; [9]
  Barnyardgrass plant response rating: 0
bamyardgrass; [10]
  Barnyardgrass plant response rating: 0
bamyardgrass; [11]
  Barnyardgrass plant response rating: 0

## Cc1cccc(C(C)C)c1-n1c(=O)on(C(=O)N(c2ccccc2)C(C)C)c1=O [Compound 66]
Giant foxtail; [1]
  Giant foxtail plant response rating: 0
Giant foxtail; [2]
  Giant foxtail plant response rating: 0
Giant foxtail; [12]
  Giant foxtail plant response rating: 4
Giant foxtail; [4]
  Plant response rating, Giant foxtail: 4
Giant foxtail; [5]
  Plant response rating, Giant foxtail: 6
Giant foxtail; [6]
  Giant foxtail plant response rating: 9
Giant foxtail; [7]
  Giant foxtail plant response rating: 0
Giant foxtail; [13]
  Giant foxtail plant response rating: 0
soybean; [1]
  Soybean plant response rating: 1
soybean; [2]
  Soybean plant response rating: 2
soybean; [12]
  Soybean plant response rating: 0
soybean; [4]
  Plant response rating, Soybean: 0
soybean; [5]
  Plant response rating, Soybean: 0
soybean; [6]
  Soybean plant response rating: 0
soybean; [7]
  Soybean plant response rating: 1
soybean; [13]
  Soybean plant response rating: 3
rice; [1]
  Rice plant response rating: 0
rice; [9]
  Rice plant response rating: 0
rice; [14]
  Rice plant response rating: 0
rice; [11]
  Rice plant response rating: 0
bamyardgrass; [1]
  Barnyardgrass plant response rating: 0
bamyardgrass; [9]
  Barnyardgrass plant response rating: 0
bamyardgrass; [14]
  Barnyardgrass plant response rating: 3
bamyardgrass; [11]
  Barnyardgrass plant response rating: 0

## Cc1cccc(C)c1-n1c(=O)on(C(=O)N(Cc2ccccc2)C(C)C)c1=O [Compound 69]
Giant foxtail; [1]
  Giant foxtail plant response rating: 0
Giant foxtail; [2]
  Giant foxtail plant response rating: 0
Giant foxtail; [12]
  Giant foxtail plant response rating: 0
Giant foxtail; [4]
  Plant response rating, Giant foxtail: 0
Giant foxtail; [5]
  Plant response rating, Giant foxtail: 4
Giant foxtail; [6]
  Giant foxtail plant response rating: 4
Giant foxtail; [7]
  Giant foxtail plant response rating: 0
Giant foxtail; [13]
  Giant foxtail plant response rating: 1
soybean; [1]
  Soybean plant response rating: 2
soybean; [2]
  Soybean plant response rating: 2
soybean; [12]
  Soybean plant response rating: 0
soybean; [4]
  Plant response rating, Soybean: 0
soybean; [5]
  Plant response rating, Soybean: 0
soybean; [6]
  Soybean plant response rating: 0
soybean; [7]
  Soybean plant response rating: 2
soybean; [13]
  Soybean plant response rating: 3
rice; [15]
  Rice plant response rating: 0
rice; [16]
  Rice plant response rating: 0
rice; [17]
  Rice plant response rating: 0
rice; [18]
  Plant response rating, Rice: 0
bamyardgrass; [15]
  Barnyardgrass plant response rating: 0
bamyardgrass; [16]
  Barnyardgrass plant response rating: 0
bamyardgrass; [17]
  Barnyardgrass plant response rating: 0
bamyardgrass; [18]
  Plant response rating, Barnyardgrass: 0

## Cc1ccccc1-n1c(=O)on(C(=O)N(Cc2ccccc2)C(C)C)c1=O [Compound 72]
Giant foxtail; [1]
  Giant foxtail plant response rating: 0
Giant foxtail; [2]
  Giant foxtail plant response rating: 0
Giant foxtail; [12]
  Giant foxtail plant response rating: 0
Giant foxtail; [4]
  Plant response rating, Giant foxtail: 0
Giant foxtail; [5]
  Plant response rating, Giant foxtail: 2
Giant foxtail; [6]
  Giant foxtail plant response rating: 2
Giant foxtail; [7]
  Giant foxtail plant response rating: 0
Giant foxtail; [13]
  Giant foxtail plant response rating: 0
soybean; [1]
  Soybean plant response rating: 0
soybean; [2]
  Soybean plant response rating: 0
soybean; [12]
  Soybean plant response rating: 0
soybean; [4]
  Plant response rating, Soybean: 0
soybean; [5]
  Plant response rating, Soybean: 0
soybean; [6]
  Soybean plant response rating: 0
soybean; [7]
  Soybean plant response rating: 0
soybean; [13]
  Soybean plant response rating: 0
rice; [15]
  Rice plant response rating: 0
rice; [16]
  Rice plant response rating: 0
rice; [17]
  Rice plant response rating: 0
rice; [18]
  Plant response rating, Rice: 0
bamyardgrass; [15]
  Barnyardgrass plant response rating: 0
bamyardgrass; [16]
  Barnyardgrass plant response rating: 0
bamyardgrass; [17]
  Barnyardgrass plant response rating: 0
bamyardgrass; [18]
  Plant response rating, Barnyardgrass: 0

## CC(C)N(C(=O)n1oc(=O)n(C(C)(C)C)c1=O)c1ccccc1 [Compound 129]
Giant foxtail; [19]
  Giant foxtail plant response rating: 6
Giant foxtail; [12]
  Giant foxtail plant response rating: 7
Giant foxtail; [20]
  Giant foxtail plant response rating (0 to 10 scale): 7
Giant foxtail; [21]
  Giant foxtail plant response rating: 8
Giant foxtail; [22]
  Giant foxtail plant response rating: 9
Giant foxtail; [23]
  Giant foxtail plant response rating: 4
Giant foxtail; [24]
  Plant response rating, Giant foxtail: 9
Giant foxtail; [25]
  Giant foxtail plant response rating: 9
soybean; [19]
  Soybean plant response rating: 2
soybean; [12]
  Soybean plant response rating: 0
soybean; [20]
  Soybean plant response rating (0 to 10 scale): 0
soybean; [21]
  Soybean plant response rating: 0
soybean; [22]
  Soybean plant response rating: 2
soybean; [23]
  Soybean plant response rating: 1
soybean; [24]
  Plant response rating, Soybean: 4
soybean; [25]
  Soybean plant response rating: 4
rice; [15]
  Rice plant response rating: 0
rice; [16]
  Rice plant response rating: 0
rice; [17]
  Rice plant response rating: 8
rice; [18]
  Plant response rating, Rice: 6
bamyardgrass; [15]
  Barnyardgrass plant response rating: 7
bamyardgrass; [16]
  Barnyardgrass plant response rating: 3
bamyardgrass; [17]
  Barnyardgrass plant response rating: 9
bamyardgrass; [18]
  Plant response rating, Barnyardgrass: 9
